Source: patent US10517850B2, “Combination of TAFIa inhibitor with plasminogen activator” (DAIICHI SANKYO COMPANY, LIMITED, priority 2015, dated 2019)

Assays:
[1] = tested on: fibrinolytic activity (D-dimer level in plasma); assay: Test on combined use with t-PA: tissue factor-infused rats, plasma D-dimer level as index for fibrinolytic activity; format: in vivo, male Wistar rats; settings: for D-dimer level Mean: jugular vein, blood at 45 min, N=7, control 5.0
Procedure: 1. Preparation of Administration Solution
(1) (2S)-5-Amino-2-{[1-(trans-4-methylcyclohexyl)-1H-imidazol-4-yl]methyl}valeric acid p-toluenesulfonate anhydrate (hereinafter, referred to as “compound A”) was dissolved in saline to prepare a 1.0 mg/mL solution. The solution was further diluted to 0.0050 mg/mL using saline. The dose of compound A was indicated in terms of a free form (conversion factor: 0.6301).
(2) t-PA (alteplase (Activacin (registered trademark) for Injection 6,000,000), Kyowa Hakko Kirin Co., Ltd.) was adjusted to 600,000 I.U./mL (which was defined as 1.0 mg/mL) with injectable water included therein. The resulting solution was further diluted to 0.17, 0.083, and 0.042 mg/mL using saline.
(3) The 0.0050 mg/mL compound A solution was mixed with an equal amount of saline or the 0.042 mg/mL t-PA solution to respectively prepare administration solutions for a compound A (2.5 μg/kg) group and a combination group. The 0.17, 0.083, and 0.042 mg/mL t-PA solutions were mixed with an equal amount of saline to respectively prepare administration solutions for t-PA (0.083, 0.042, and 0.021 mg/kg) groups.
(4) 4 mL of saline was added to 10 mL (standard) of a tissue factor (Dade (registered trademark) Innovin (registered trademark), Sysmex Corp.) to prepare a tissue factor solution.
(1) Ten-week-old male Wistar rats (Japan SLC, Inc.) were fasted from a day before the experiment. On the basis of their body weights measured in the morning on the day of the experiment, 7 rats were assigned to each of 6 groups: a control (saline) group, a compound A (2.5 μg/kg) group, t-PA (0.021, 0.042, and 0.083 mg/kg) groups, and a combination group of compound A (2.5 μg/kg) and t-PA (0.021 mg/kg).
(2) These rats were anesthetized by the administration of 100 mg/kg thiopental sodium (Ravonal (registered trademark), Mitsubishi Tanabe Pharma Corp.), and the tissue factor solution was continuously administered at 7.5 mL/kg/hr for 20 minutes from the jugular veins. 25 minutes after the start of the administration of the tissue factor, the administration solution for each group was rapidly administered from the jugular veins. 45 minutes after the start of the administration of the tissue factor, blood was collected from the jugular veins into syringes supplemented with citric acid in advance, and plasma was prepared by centrifugation. The plasma was diluted 20-fold using a factor diluent (LSI Medience Corp.). D-dimer levels were measured using LPIA-Ace D-D dimer II and ACL TOP 500 CTS (Instrumentation Laboratory) and used as an index for fibrinolytic activity (FIG. 1).
(1) Microsoft Excel 2003 and SAS System Release 8.2 were used in statistical analysis.
(2) For each group, the basic statistics (mean and standard error) of the D-dimer levels were calculated and used as results relating to fibrinolytic activity (Table 1).
(3) The comparison of the compound A (2.5 μg/kg) group with the control (saline) group was carried out by the Student's t test. The calculated P value was rounded off and indicated down to four decimal places, and the significance level was set to two-sided 5%.
(4) The comparison of the t-PA (0.021, 0.042, and 0.083 mg/kg) groups with the control (saline) group was carried out by the parametric Dunnett's test. The calculated P value was rounded off and indicated down to four decimal places, and the significance level was set to two-sided 5%.
(5) The comparison of the compound A (2.5 μg/kg) group or the t-PA (0.021 mg/kg) single administration group with the combination group was carried out by the parametric Dunnett's test. The calculated P value was rounded off and indicated down to four decimal places, and the significance level was set to two-sided 5%.
(6) The comparison of the compound A (2.5 μg/kg) group or the t-PA (0.021 mg/kg) single administration group with the combination group was carried out by two-way ANOVA. […]

[2] = tested on: fibrinolytic activity (D-dimer level in plasma); assay: Test on combined use with u-PA: tissue factor-infused rats, plasma D-dimer level as index for fibrinolytic activity; format: in vivo, male Wistar rats
Procedure: (1) u-PA (urokinase injection “Fuji” (registered trademark) 60,000, Wakamoto Co., Ltd.) was adjusted to 90 kU/mL with injectable water.
(2) Compound A was dissolved in saline to prepare a 1.0 mg/mL solution. The solution was further diluted to 0.0050 mg/mL using saline. The dose of compound A was indicated in terms of a free form (conversion factor: 0.6301).
(3) Appropriate amounts of saline, the 90 kU/mL u-PA solution, and the 0.0050 mg/mL compound A solution were mixed to respectively prepare administration solutions for a u-PA (30 kU/kg) group, a compound A (2.5 μg/kg) group, and a combination group of u-PA (30 kU/kg) and compound A (2.5 μg/kg).
(4) 5 mL of saline was added to 10 mL (standard) of a tissue factor (Dade (registered trademark) Innovin (registered trademark), Sysmex Corp.) to prepare a tissue factor solution.
(1) Eleven-week-old male Wistar rats (Japan SLC, Inc.) were fasted from a day before the experiment. On the basis of their body weights measured in the morning on the day of the experiment, 8 rats were assigned to each of 4 groups: a control (saline) group, a u-PA (30 kU/kg) group, a compound A (2.5 μg/kg) group, and a combination group of u-PA (30 kU/kg) and compound A (2.5 μg/kg). […]
(2) For each group, the basic statistics (mean and standard error) of the D-dimer levels were calculated and used as results relating to fibrinolytic activity (Table 2). […]

Row | Compound | D-dimer level Mean ([1]; t-PA 0.021 mg/kg alone) | fibrinolytic activity (D-dimer level) with respect to the control (saline) group ([1]; t-PA 0.021 mg/kg, parametric Dunnett's test, P=0.3080) | D-dimer level Mean ([1]; t-PA 0.042 mg/kg alone) | fibrinolytic activity (D-dimer level) with respect to the control (saline) group ([1]; t-PA 0.042 mg/kg, parametric Dunnett's test, P<0.0001) | D-dimer level Mean ([1]; t-PA 0.083 mg/kg alone) | fibrinolytic activity (D-dimer level) with respect to the control (saline) group ([1]; t-PA 0.083 mg/kg, parametric Dunnett's test, P<0.0001) | D-dimer level Mean ([2]; compound A 2.5 μg/kg (free form) alone, jugular vein, blood at 45 min, N=8, control 24.2) | fibrinolytic activity (D-dimer level) with respect to the control group ([2]; compound A 2.5 μg/kg single administration, Student's t test, P=0.0019) | D-dimer level Mean ([1]; compound A 2.5 μg/kg (free form) alone, 25 min after start of tissue factor) | fibrinolytic activity (D-dimer level) with respect to the control (saline) group ([1]; compound A 2.5 μg/kg, Student's t test, P=0.1431)
1 | t-PA: tissue plasminogen activator, alteplase (Activacin for Injection 6,000,000, Kyowa Hakko Kirin) | 25.0 µg/mL | did not exhibit significantly excellent fibrinolytic activity | 95.2 µg/mL | exhibited significantly excellent fibrinolytic activity | 254.7 µg/mL | exhibited significantly excellent fibrinolytic activity |  |  |  | 
2 | C[C@H]1CC[C@H](n2cnc(C[C@H](CCCN)C(=O)O)c2)CC1.Cc1ccc(S(=O)(=O)O)cc1 (relative stereo) [Compound A, (2S)-5-Amino-2-{[1-(trans-4-methylcyclohexyl)-1H-imidazol-4-yl]methyl}valeric acid p-toluenesulfonate anhydrate] |  |  |  |  |  |  | 103.8 µg/mL | exhibited significantly excellent fibrinolytic activity | 26.4 µg/mL | did not exhibit significantly excellent fibrinolytic activity
